# Publication PMC9057582, “HIF inhibitor 32-134D eradicates murine hepatocellular carcinoma in combination with anti-PD1 therapy” (The Journal of Clinical Investigation, 2022)
# Experiments:
# [1] = test system: Hepa1-6 tumors; assay: Intratumoral mRNA (RT-qPCR, RT-qPCR array) and protein (ELISA) expression in Hepa1-6 tumors; assay type: in vivo, C57L mice
# Description: By contrast, the expression of mRNAs encoding the chemokine CXCL1 and interleukins IL-6 and IL-10, which recruit/activate TAMs and/or MDSCs (Supplemental Table 4), was inhibited by 32-134D treatment (P < 0.05; Figure 6D).
# Figure 6 Effect of 32-134D on intratumoral gene expression. (A–D) C57L mice were injected with Hepa1-6 HCC cells subcutaneously and when tumors reached a volume of 200 mm^3, the mice were treated with vehicle (blue bars) or 32-134D (40 mg/kg; red bars) by daily intraperitoneal injection for 8 days. The tumors were harvested and mRNA was quantified by RT-qPCR and normalized to blue (mean ± SEM, n = 4). *P < 0.05 versus blue (ANOVA with Bonferroni’s post hoc test). (E) Effect of 32-134D on intratumoral expression of cytokines and chemokines. Total RNA isolated from tumors of 32-134D–treated versus vehicle-treated mice (n = 3 each) was analyzed using an RT-qPCR array and the ratio of mean expression (32-134D/vehicle) was determined. mRNAs with a significant difference between groups (P < 0.05, Student’s t test) are annotated.
# Figure 7 Effect of 32-134D on intratumoral expression of immunoregulatory proteins. (A–H) Lysates prepared from tumors of 32-134D–treated versus vehicle-treated mice were subjected to ELISA for secreted proteins mediating antitumor immunity (CXCL2, CXCL9, CXCL10) or immunosuppression (CXCL1, IL-6, IL-10, VEGFA). The data are presented as mean ± SEM (n = 4 each). *P < 0.05 (Mann-Whitney test).
# Tumors were homogenized in ice-cold PBS supplemented with 1% Triton X-100 and PIs, centrifuged at 10,000g for 20 minutes to pellet debris, and the supernatant was collected for ELISA using commercial kits (Supplemental Table 6). Optical density was obtained at 450 nm (corrected for readings at 570 nm) using the VICTOR Nivo plate reader. Sample protein concentration was calculated by linear regression from a standard curve.
# Total RNA from Hepa1-6 tumors was analyzed using the RT^2 Profiler PCR Array of Mouse Cytokines and Chemokines (Supplemental Table 6) according to the manufacturer’s instructions.
# [2] = Mouse pharmacokinetics (plasma, LC-MS/MS); assay type: in vivo, C57BL/6J mice; conditions: male, C57BL/6J, ip, single intraperitoneal injection of 40 mg/kg
# Description: We employed liquid chromatography and tandem mass spectrometry (LC-MS/MS) to quantify the plasma concentration of 32-134D over 24 hours following a single intraperitoneal injection of 40 mg/kg (Figure 9). The maximum plasma concentration (Cmax) of 20 μM occurred at 4 hours with a biexponential decline. […] Further studies are required to determine whether steady-state levels are achieved with daily administration.
# Figure 9 Concentration-time profiles of 32-134D in mice (n = 3 per time point) treated with a single dose of 32-134D. Plasma was obtained over 24 hours, with 32-134D concentrations determined by LC-MS/MS. […] Data points and error bars represent mean and SD of 3 replicates, respectively.
# Male C57BL/6J mice were administered 32-134D at 40 mg/kg as a single intraperitoneal injection. Mice (n = 3 per time point) were euthanized at 0.5, 1, 2, 4, 8, 16, and 24 hours after injection. Compound 32-134D was quantified in plasma by LC-MS/MS (see Supplemental Methods). Pharmacokinetic parameters were calculated from mean concentration-time data using noncompartmental methods in Phoenix WinNonlin version 8.3 (Certara). The Cmax and time to Cmax (tmax) were the observed values. The AUClast was calculated using the log-linear trapezoidal method. AUC was extrapolated to infinity (AUCINF) by dividing the last quantifiable concentration by the terminal disposition rate constant (λz). The λz was determined from at least 3 points on the slope of the terminal phase of the concentration-time profile. The t1/2 was determined by dividing 0.693 by λz. Cl/F was calculated by dividing the dose administered by AUCINF. V/F was calculated by dividing Cl/F by λz. If the percentage AUC extrapolated was greater than 20% or the r^2 of λz was less than 0.85, the AUCINF, Cl/F, t1/2, and V/F were not reported.
# [3] = RT-qPCR array of 84 mRNAs, P < 0.05
# [4] = RT-qPCR, 40 mg/kg, 8 days, P < 0.05
compound,measurement,setting,value
Brc1ccc2c(-c3csc(-c4c[nH]c5c(Br)cccc45)n3)c[nH]c2c1 [Compound 32-134D],"CXCL1, IL-6, IL-10, and VEGFA protein in tumor lysates",[1]; ELISA,decreased levels
same,"CXCL2, CXCL9, and CXCL10 protein in tumor lysates","[1]; ELISA, P < 0.05",significantly increased levels
same,number of cytokine/chemokine mRNAs with decreased expression,[1]; [3],40 mRNAs
same,number of cytokine/chemokine mRNAs with increased expression,[1]; [3],5 mRNAs
same,"tumor expression of CXCL1, IL-6 and IL-10 mRNA",[1]; [4],inhibited
same,"tumor expression of CXCL9, CXCL10, and IFN-γ mRNA",[1]; [4],increased
same,"tumor mRNAs encoding angiogenic factors (ANGPTL4, EPO, PGF, VEGFA) and immunosuppression proteins (B7H4, CD47, CD73, PDL1, SLC2A1, HAVCR2, CD70, LDHA, ENTPD1, CA9)",[1]; [4],significantly decreased
same,CL/F,[2]; read-out: apparent clearance (Cl/F),14.5 mL/min/kg
same,Vd/F,[2]; read-out: apparent volume of distribution (V/F),6.1 L/kg
same,AUC(0-inf),[2]; read-out: area under the curve extrapolated to infinity (AUCINF),96.7 µM·h
same,Cmax,[2]; read-out: maximum plasma concentration (Cmax),20 µM
same,half-life,[2]; read-out: terminal half-life (t1/2) (converted),4.1 h
